pIC50: −log10 of the molar value.

Chain of Escherichia coli DNA gyrase A/B tetramer (P0AES4 whole entry, one chain of several): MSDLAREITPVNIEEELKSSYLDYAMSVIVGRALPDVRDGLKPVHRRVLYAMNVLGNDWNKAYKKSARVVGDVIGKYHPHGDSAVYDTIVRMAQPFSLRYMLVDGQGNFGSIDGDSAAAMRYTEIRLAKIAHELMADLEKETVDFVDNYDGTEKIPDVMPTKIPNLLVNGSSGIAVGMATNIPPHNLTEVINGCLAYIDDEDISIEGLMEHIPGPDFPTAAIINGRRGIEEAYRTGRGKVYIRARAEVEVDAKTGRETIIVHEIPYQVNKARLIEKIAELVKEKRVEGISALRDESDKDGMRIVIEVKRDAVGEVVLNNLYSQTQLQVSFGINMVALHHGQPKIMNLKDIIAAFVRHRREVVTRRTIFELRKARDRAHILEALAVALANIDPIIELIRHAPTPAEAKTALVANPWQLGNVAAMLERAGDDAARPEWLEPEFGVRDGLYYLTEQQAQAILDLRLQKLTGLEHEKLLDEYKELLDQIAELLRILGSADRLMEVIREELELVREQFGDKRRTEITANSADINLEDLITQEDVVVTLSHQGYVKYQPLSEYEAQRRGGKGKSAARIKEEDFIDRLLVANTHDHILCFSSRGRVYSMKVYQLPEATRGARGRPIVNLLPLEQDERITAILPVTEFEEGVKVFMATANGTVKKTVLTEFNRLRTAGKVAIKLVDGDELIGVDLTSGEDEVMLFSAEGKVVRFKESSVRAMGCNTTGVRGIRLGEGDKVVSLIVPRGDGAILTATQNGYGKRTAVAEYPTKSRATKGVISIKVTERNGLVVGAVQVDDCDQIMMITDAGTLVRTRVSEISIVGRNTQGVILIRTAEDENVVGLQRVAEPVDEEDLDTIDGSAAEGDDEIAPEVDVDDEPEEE

The first assay addresses Escherichia coli DNA gyrase A/B tetramer (Escherichia coli, UniProt P0AES4+P0AES6). The experiment in a line: DNA gyrase supercoiling activity fluorescence polarisation assay. The class given is biochemical.
Conditions: not given
On the procedure:
In a black, 384-well polystyrene assay plate, 30 microliters/well of 5 nM Escherichia coli DNA gyrase A/B tetramer and 130 micrograms/ml of topologically relaxed plasmid containing the triplex-forming sequence […] in an assay buffer consisting of 35 mM Tris-HCl (pH 7.5), 24 mM KCl, 4 mM MgCl2, 2 mM dithiothreitol, 1.8 mM spermidine, 5% (v/v) glycerol, 200 nM bovine serum albumin, 0.8% dimethylsulfoxide, and 0.3 mM ATP may be incubated at ambient temperature for (typically 30 minutes) in the absence or presence of 5-10 different concentrations of test compound. The supercoiling reactions may be quenched by the addition of 10 microliters/well of 40 nM oligodeoxynucleotide probe in 3× triplex-forming buffer consisting of 150 mM NaCl, and 150 mM sodium acetate at pH 3.5. The oligodeoxynucleotide probe may be 5′-BODIPY-FL-labeled TTCTTCTTC. After 60 minutes, the fluorescence anisotropy of the BODIPY-FL may be measured in a Tecan Ultra plate reader, using 485 nm excitation and 535 nm emission filters equipped with polarizers. The IC50 may be determined by nonliner regression using two control reactions. The first contains no test compound but 0.8% DMSO (100% activity) while the second control reaction contains 5 uM Ciprofloxacin and 0.8% DMSO (0% activity).
When tested in an in-vitro assay based on the DNA gyrase supercoiling activity fluorescence polarisation assay described above, the E. coli DNA gyrase supercoiling IC50 assay inhibitory activity of the following Examples was measured at the indicated IC50.
One may read the pIC50 as −log10 of the IC50, conventionally taken in molar units. For the molecule `C[C@@H]1CN2c3cc(F)c(C#Cc4cnccn4)cc3CC3(C(=O)NC(=O)NC3=O)[C@H]2[C@H](C)O1` (relative stereo) [Example 31, (2R,4S,4aS)-rel-9-Fluoro-2,4-dimethyl-8-(pyrazin-2-ylethynyl)-1,2,4,4a-tetrahydro-2′H,6H-spiro[1,4-oxazino[4,3-a]quinoline-5,5′-pyrimidine]-2′,4′,6′(1′H,3′H)-trione], the pIC50 is 6.01.
For `C[C@H]1CN2c3c(cc(C#Cc4cc5ccccc5s4)c(F)c3F)CC3(C(=O)NC(=O)NC3=O)[C@@H]2[C@@H](C)O1` (racemic) [Example 11, (2S,4R,4aR)-rel-8-(1-Benzothiophen-2-ylethynyl)-9,10-difluoro-2,4-dimethyl-1,2,4,4a-tetrahydro-2′H,6H-spiro[1,4-oxazino[4,3-a]quinoline-5,5′-pyrimidine]-2′,4′,6′(1′H,3′H)-trione], the pIC50 was 5.26.
Take `C[C@@H]1CN2c3c(cc(C(=O)NC4CCS(=O)(=O)C4)c(F)c3F)CC3(C(=O)NC(=O)NC3=O)[C@H]2[C@H](C)O1` (relative stereo) [Example 62, (2R,4S,4aS)-rel-N-(1,1-Dioxidotetrahydrothiophen-3-yl)-9,10-difluoro-2,4-dimethyl-2′,4′,6′-trioxo-1,1′,2,3′,4,4′,4a,6′-octahydro-2′H,6H-spiro[1,4-oxazino[4,3-a]quinoline-5,5′-pyrimidine]-8-carboxamide]: the pIC50 is 5.15.
On to `C[C@H]1CN2c3c(cc(C#Cc4cncs4)c(F)c3F)CC3(C(=O)NC(=O)NC3=O)[C@@H]2[C@@H](C)O1` (relative stereo) [Example 9, (2S,4R,4aR)-rel-9,10-Difluoro-2,4-dimethyl-8-(1,3-thiazol-5-ylethynyl)-1,2,4,4a-tetrahydro-2′H,6H-spiro[1,4-oxazino[4,3-a]quinoline-5,5′-pyrimidine]-2′,4′,6′(1′H,3′H)-trione], for which the pIC50 is 6.15.
Regarding `C[C@H]1CN2c3c(cc(C#C[Si](C)(C)C)c(F)c3F)CC3(C(=O)NC(=O)NC3=O)[C@@H]2[C@@H](C)O1` (relative stereo) [Example 6, (2S,4R,4aR)-rel-9,10-Difluoro-2,4-dimethyl-8-[(trimethylsilyl)ethynyl]-1,2,4,4a-tetrahydro2′H,6H-spiro[1,4-oxazino[4,3-a]quinoline-5,5′-pyrimidine]-2′,4′,6′(1′H,3′H)-trione], the pIC50 is 5.49.
In turn, `Cc1nnc(C)n1/N=C/c1cc2c(c(F)c1F)N1C[C@@H](C)O[C@@H](C)[C@@H]1C1(C2)C(=O)NC(=O)NC1=O` (relative stereo) [Example 47, (2R,4S,4aS)-rel-8-{(E)-[(3,5-Dimethyl-4H-1,2,4-triazol-4-yl)imino]methyl}-9,10-difluoro-2,4-dimethyl-1,2,4,4a-tetrahydro-2′H,6H-spiro[1,4-oxazino[4,3-a]quinoline-5,5′-pyrimidine]-2′,4′,6′(1′H,3′H)-trione] had a pIC50 of 5.44.
For the molecule `C[C@@H]1CN2c3cc(F)c(C#Cc4nncs4)cc3CC3(C(=O)NC(=O)NC3=O)[C@H]2[C@H](C)O1` (relative stereo) [Example 24, (2R,4S,4aS)-rel-9-Fluoro-2,4-dimethyl-8-(1,3,4-thiadiazol-2-ylethynyl)-1,2,4,4a-tetrahydro-2′H,6H-spiro[1,4-oxazino[4,3-a]quinoline-5,5′-pyrimidine]-2′,4′,6′(1′H,3′H)-trione], the pIC50 was 6.46.
The molecule `COCC(=O)N/N=C(\C)c1cc2c(c(F)c1F)N1C[C@@H](C)O[C@@H](C)[C@@H]1C1(C2)C(=O)NC(=O)NC1=O` (relative stereo) [Example 55, N′-{(1E)-1-[(2R,4S,4aS)-rel-9,10-Difluoro-2,4-dimethyl-2′,4′,6′-trioxo-1,1′,2,3′,4,4′,4a,6′-octahydro-2′H,6H-spiro[1,4-oxazino[4,3-a]quinoline-5,5′-pyrimidin]-8-yl]ethylidene}-2-methoxyacetohydrazide] had a pIC50 of 5.12.
Turning to `C[C@@H]1CN2c3ccc(NS(=O)(=O)N4CCOCC4)cc3CC3(C(=O)NC(=O)NC3=O)[C@H]2[C@H](C)O1` (relative stereo) [Example 75, N-[(2R,4S ,4aS)-rel-2,4-Dimethyl-2′,4′,6′-trioxo-1,1′,2,3′,4,4′,4a,6′-octahydro-2′H,6H-spiro[1,4-oxazino[4,3-a]quinoline-5,5′-pyrimidin]-8-yl]morpholine-4-sulfonamide], the pIC50 was 6.18.
In turn, `C[C@@H]1CN2c3cc(F)c(C#Cc4nc5ccccc5s4)cc3CC3(C(=O)NC(=O)NC3=O)[C@H]2[C@H](C)O1` (relative stereo) [Example 34, (2R,4S,4aS)-rel-8-(1,3-Benzothiazol-2-ylethynyl)-9-fluoro-2,4-dimethyl-1,2,4,4a-tetrahydro-2′H,6H-spiro[1,4-oxazino[4,3-a]quinoline-5,5′-pyrimidine]-2′,4′,6′(1′H,3′H)-trione] showed a pIC50 of 5.53.
In turn, `C[C@H]1CN2c3c(cc(C#Cc4cccs4)c(F)c3F)CC3(C(=O)NC(=O)NC3=O)[C@@H]2[C@@H](C)O1` (relative stereo) [Example 10, (2S,4R,4aR)-rel-9,10-Difluoro-2,4-dimethyl-8-(thiophen-2-ylethynyl)-1,2,4,4a-tetrahydro-2′H,6H-spiro[1,4-oxazino[4,3-a]quinoline-5,5′-pyrimidine]-2′,4′,6′(1′H,3′H)-trione] showed a pIC50 of 5.84.
On to `C[C@@H]1CN2c3ccc(C#Cc4ccccn4)cc3CC3(C(=O)NC(=O)NC3=O)C2[C@H](C)O1` (relative stereo) [Example 2, (2R,4S)-rel-2,4-Dimethyl-8-(pyridin-2-ylethynyl)-1,2,4,4a-tetrahydro-2′H,6H-spiro[1,4-oxazino[4,3-a]quinoline-5,5′-pyrimidine]-2′,4′,6′(1′H,3′H)-trione], for which the pIC50 was 5.68.
With `C[C@@H]1CN2c3c(cc(C#Cc4cccnc4)c(F)c3F)CC3(C(=O)NC(=O)NC3=O)[C@H]2[C@H](C)O1` (relative stereo) [Example 18, (2R,4S,4aS)-rel-9,10-Difluoro-2,4-dimethyl-8-(pyridin-3-ylethynyl)-1,2,4,4a-tetrahydro-2′H,6H-spiro[1,4-oxazino[4,3-a]quinoline-5,5′-pyrimidine]-2′,4′,6′(1′H,3′H)-trione], the pIC50 is 6.30.
With `C[C@@H]1CN2c3ccc(NC(=O)Nc4ccccc4)cc3CC3(C(=O)NC(=O)NC3=O)[C@H]2[C@H](C)O1` (relative stereo) [Example 73, 1-[(2R,4S,4aS)-rel-2,4-Dimethyl-2′,4′,6′-trioxo-1,1′,2,3′,4,4′,4a,6′-octahydro-2′H,6H-spiro[1,4-oxazino[4,3-a]quinoline-5,5′-pyrimidin]-8-yl]-3-phenylurea], the pIC50 was 5.30.
Molecule `C/C(=N\N1CC(=O)NC1=O)c1cc2c(c(F)c1F)N1C[C@@H](C)O[C@@H](C)[C@@H]1C1(C2)C(=O)NC(=O)NC1=O` (relative stereo) [Example 52, (2R,4S,4aS)-rel-8-[(1E)-N-(2,4-Dioxoimidazolidin-1-yl)ethanimidoyl]-9,10-difluoro-2,4-dimethyl-1,2,4,4a-tetrahydro-2′H,6H-spiro[1,4-oxazino[4,3-a]quinoline-5,5′-pyrimidine]-2′,4′,6′(1′H,3′H)-trione] had a pIC50 of 4.89.
Same read-out and setting: under `C[C@H]1CN2c3c(cc(C#Cc4c[nH]cn4)c(F)c3F)CC3(C(=O)NC(=O)NC3=O)[C@@H]2[C@@H](C)O1` (relative stereo) [Example 15, (2S,4R,4aR)-rel-9,10-Difluoro-8-(1H-imidazol-4-ylethynyl)-2,4-dimethyl-1,2,4,4a-tetrahydro-2′H,6H-spiro[1,4-oxazino[4,3-a]quinoline-5,5′-pyrimidine]-2′,4′,6′(1′H,3′H)-trione] stands 6.15.
The molecule `C[C@@H]1CN2c3cc(F)c(C#Cc4ncccn4)cc3CC3(C(=O)NC(=O)NC3=O)[C@H]2[C@H](C)O1` (relative stereo) [Example 33, (2R,4S,4aS)-rel-9-Fluoro-2,4-dimethyl-8-(pyrimidin-2-ylethynyl)-1,2,4,4a-tetrahydro-2′H,6H-spiro[1,4-oxazino[4,3-a]quinoline-5,5′-pyrimidine]-2′,4′,6′(1′H,3′H)-trione] gave a pIC50 of 5.93.

The assay is the same for the next values; noted with them: 5 nM enzyme, 0.3 mM ATP, relaxed plasmid, fluorescence anisotropy readout; read-out: E. coli DNA gyrase supercoiling IC50.
On to “(2R,4S,4aS)-rel-9,10-Difluoro-2,4-dimethyl-8-[(E)-(morpholin-4-ylimino)methyl]-1,2,4,4a-tetrahydro-2′H,6H-spiro[1,4-oxazino[4,3-a]quinoline-5,5′-pyrimidine]-2′,4′,6(1′H,3′H)-trione [Example 22]”, for which the pIC50 was 5.80.
For the molecule `C[C@@H]1CN2c3cc(F)c(C#Cc4nccn4C)cc3C(=O)C3(CNC(=O)NC3=O)[C@H]2[C@H](C)O1` (relative stereo) [Example 30, (2R,4S,4aS)-rel-9-Fluoro-2,4-dimethyl-8-[(1-methyl-1H-imidazol-2-yl)ethynyl]-1,2,4,4a-tetrahydro-2′H,6H-spiro[1,4-oxazino[4,3-a]quinoline-5,5′-pyrimidine]-2′,4′,6(1′H,3′H)-trione], the negative logarithm of the IC50 (pIC50) is 5.94.
